Data on 1 molecule can be found in patent publication US20070142412A1, “Crystalline form of 2-{4-['3-(4-chloro-2-fluorophenyl)-4-pyrimidin-4-yl-1h-pyrazol-5-yl]piperidin-1-yl}-2-oxoethanol” (priority 2003, published 2007).

This data set in a line: Moisture sorption analysis (DVS) followed by PXRD. Format: physicochemical. The note with it: 25° C. Here is the method: The moisture sorption profile of the sample was determined using a Surface Measurement System (SMS) DVS-1 Automated Water Sorption Analyzer operating via SMS Software version 2.16. The change in mass of the sample versus relative humidity (RH) was monitored at 25° C. using a method from 30% to 0%, 0% to 90%, 90% to 0%, and 0% to 30% RH in 10% RH steps with dm/dt=3×10^−4. Maximum hold time per step was 4 hours. An approximately 15 mg sample was loaded onto the sample holder. The balance was calibrated with a 100 mg standard weight at 25° C. HPLC-grade water was used for the study. It is believed that about 0.5% water is believed to be surface bound moisture. To investigate the hydration state of the Form 1 hydrate, moisture sorption analysis was performed. At the conclusion of the study, the sample was removed from the moisture sorption balance and analyzed by PXRD. […] Constant mass was not obtained at 0% RH in the moisture sorption study; therefore, an additional moisture sorption study was conducted with increase maximum hold time per step to allow the sample to reach equilibrium over the low RH range. […] This theory is in no way to be construed as limiting.

On to `O=C(CO)N1CCC(c2[nH]nc(-c3ccc(Cl)cc3F)c2-c2ccncn2)CC1` [Form 1 hydrate, 2-{4-[3-(4-chloro-2-fluorophenyl)-4-pyrimidin-4-yl-1H-pyrazol-5-yl]piperidin-1-yl}-2-oxoethanol], for which the “Change in PXRD diffraction pattern after moisture sorption analysis” value (cycled 30% to 0%, 0% to 90%, 90% to 0%, 0% to 30% RH in 10% RH steps) is on record as “No change was observed”. Further, the “Water content indicated by moisture sorption data” value (at least 0.5% thought to be surface bound moisture) is “approximately 5.5%”.
